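Method: 48-hour compound exposure of cells in 96-well plates, five concentrations, linear interpolation of endpoints. Abbreviation: GI50, concentration required for 50% inhibition of growth. At the TGI there is no net growth.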
Key:
Assay in all cases: inhibition of tumour cell growth, NCI panel, 48 h
[1] = tested on: RPMI-8226 leukemia
[2] = tested on: PC-3 prostate
[3] = tested on: SF-539 CNS
[4] = tested on: A498 renal
[5] = tested on: SK-MEL-28 melanoma
[6] = tested on: U251 CNS
[7] = tested on: SNB-75 CNS
[8] = tested on: OVCAR-5 ovarian
[9] = tested on: 786-0 renal
[10] = tested on: SR leukemia
[11] = tested on: CAKI-1 renal
[12] = tested on: SK-MEL-2 melanoma
[13] = tested on: SW-620 colon
[14] = tested on: NCI/ADR-RES ovarian
[15] = tested on: ACHN renal
[16] = tested on: KM12 colon
[17] = tested on: MDA-MB-231 breast
[18] = tested on: HT29 colon
[19] = tested on: NCI-H23 lung
[20] = tested on: MALME-3M melanoma
[21] = tested on: IGROV1 ovarian
[22] = tested on: HOP-62 NSCLC
[23] = tested on: MCF7 breast
[24] = tested on: UACC-257 melanoma
[25] = tested on: COLO 205 colon
[26] = tested on: HCC-2998 colon
[27] = tested on: HS 578T breast
[28] = tested on: BT-549 breast
[29] = tested on: MOLT-4 leukemia
[30] = tested on: UACC-62 melanoma
[31] = tested on: RXF 393 renal
[32] = tested on: NCI-H460 lung
[33] = tested on: DU-145 prostate
[34] = tested on: TK-10 renal
[35] = tested on: HOP-92 NSCLC
[36] = tested on: OVCAR-8 ovarian
[37] = tested on: SF-295 CNS
[38] = tested on: SN12C renal
[39] = tested on: SK-OV-3 ovarian
[40] = tested on: EKVX NSCLC
[41] = tested on: T-47D breast
[42] = tested on: OVCAR-3 ovarian
[43] = tested on: UO-31 renal
[44] = tested on: SK-MEL-5 melanoma
[45] = tested on: OVCAR-4 ovarian
[46] = tested on: SF-268 CNS
[47] = tested on: MDA-MB-435
[48] = tested on: NCI-H522 lung
[49] = tested on: NCI-H226 lung
[50] = tested on: HCT-15 colon
[51] = tested on: A549 NSCLC
[52] = tested on: LOX IMVI melanoma
[53] = tested on: SNB-19 CNS

Cc1ccc(C(=O)Nc2ccc(CNCCN3CCNCC3)c(C(F)(F)F)c2)cc1C#Cc1cnc2cccnn12
GI50 [1]: 2180 nM | TGI [1]: 4910 nM | GI50 [2]: 1860 nM | TGI [2]: 3400 nM | GI50 [3]: 1630 nM | TGI [3]: 3060 nM | GI50 [4]: 1800 nM | TGI [4]: 3360 nM | GI50 [5]: 1730 nM | TGI [5]: 3190 nM | GI50 [6]: 1720 nM | TGI [6]: 3210 nM | GI50 [7]: 714 nM | TGI [7]: 3530 nM | GI50 [8]: 1790 nM | TGI [8]: 3310 nM | GI50 [9]: 2170 nM | TGI [9]: 3890 nM | GI50 [10]: 2470 nM | TGI [10]: > 100000 nM | GI50 [11]: 1790 nM | TGI [11]: 3370 nM | GI50 [12]: 1810 nM | TGI [12]: 3680 nM | GI50 [13]: 1940 nM | TGI [13]: 3650 nM | GI50 [14]: 7540 nM | TGI [14]: 26700 nM | GI50 [15]: 1820 nM | TGI [15]: 3270 nM | GI50 [16]: 1780 nM | TGI [16]: 3350 nM | GI50 [17]: 1410 nM | TGI [17]: 2970 nM | GI50 [18]: 1390 nM | TGI [18]: 2780 nM | GI50 [19]: 1850 nM | TGI [19]: 3450 nM | GI50 [20]: 1710 nM | TGI [20]: 3390 nM | GI50 [21]: 1850 nM | TGI [21]: 3490 nM | GI50 [22]: 1860 nM | TGI [22]: 3630 nM | GI50 [23]: 1780 nM | TGI [23]: 3400 nM | GI50 [24]: 1930 nM | TGI [24]: 3850 nM | GI50 [25]: 1930 nM | TGI [25]: 3870 nM | GI50 [26]: 1970 nM | TGI [26]: 3620 nM | GI50 [27]: 2070 nM | TGI [27]: 5250 nM | GI50 [28]: 2170 nM | TGI [28]: 3910 nM | GI50 [29]: 1680 nM | TGI [29]: 4470 nM | GI50 [30]: 1740 nM | TGI [30]: 3270 nM | GI50 [31]: 1800 nM | TGI [31]: 3240 nM | GI50 [32]: 1990 nM | TGI [32]: 3810 nM | GI50 [33]: 1890 nM | TGI [33]: 3390 nM | GI50 [34]: 1970 nM | TGI [34]: 3580 nM | GI50 [35]: 1450 nM | TGI [35]: 3250 nM | GI50 [36]: 2070 nM | TGI [36]: 4010 nM | GI50 [37]: 1780 nM | TGI [37]: 3310 nM | GI50 [38]: 1770 nM | TGI [38]: 3380 nM | GI50 [39]: 2130 nM | TGI [39]: 3950 nM | GI50 [40]: 2120 nM | TGI [40]: 4130 nM | GI50 [41]: 1940 nM | TGI [41]: 4090 nM | GI50 [42]: 1970 nM | TGI [42]: 3610 nM | GI50 [43]: 2460 nM | TGI [43]: 5900 nM | GI50 [44]: 1760 nM | TGI [44]: 3250 nM | GI50 [45]: 2040 nM | TGI [45]: 4260 nM | GI50 [46]: 2140 nM | TGI [46]: 4110 nM | GI50 [47]: 1770 nM | TGI [47]: 3300 nM | GI50 [48]: 1780 nM | TGI [48]: 3480 nM | GI50 [49]: 1840 nM | TGI [49]: 3740 nM | GI50 [50]: 1870 nM | TGI [50]: 3430 nM | GI50 [51]: 1920 nM | TGI [51]: 3730 nM | GI50 [52]: 1730 nM | TGI [52]: 3180 nM | GI50 [53]: 1960 nM | TGI [53]: 3540 nM

— PubChem BioAssay (NCI)
